Assay results as given in patent US20230142739A1, “PROTEIN-PROTEIN INTERACTION STABILIZERS” (The Regents of the University of California, priority 2020, published 2023).
Marks after values point to notes of the source that are not given here. Blank lines part the entries; values can stand above or below the molecule they belong to.

Experiments:
ER = ER (Homo sapiens, UniProt P31947); assay: MS (KD,app), ER; assay type: binding; details: 24 hr incubation
p65_45/14-3-3γ [1] = target: T1, p65_45/14-3-3γ (Homo sapiens, UniProt P61981); assay: Fluorescence anisotropy protein titration, p65_45 peptide/14-3-3γ in presence of 1 mM fragment; assay type: binding; parameters: The full length 14-3-3γ was dialysis against 25 mM HEPES pH7.5; made in house; host or cells: E. coli BL21(DE3), pPROEX HTb
T1 sequence (P61981 whole entry, other chains not shown, the tested form may be a part): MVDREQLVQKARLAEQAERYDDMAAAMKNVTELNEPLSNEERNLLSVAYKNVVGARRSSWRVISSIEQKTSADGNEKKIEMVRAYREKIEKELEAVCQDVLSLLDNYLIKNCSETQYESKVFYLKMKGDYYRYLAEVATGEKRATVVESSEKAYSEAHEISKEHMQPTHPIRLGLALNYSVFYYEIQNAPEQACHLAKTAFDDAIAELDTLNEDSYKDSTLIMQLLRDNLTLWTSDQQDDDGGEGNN
Description: SF: the fold-change of apparent KD in comparison to a DMSO control.
During compound titrations, the 14-3-3γ concentration was constant 50 μM and the compound was titrated in a 1:1 dilution series. In protein titrations, 14-3-3γ was titrated in a 1:1 dilution series in the presence of 1 mM compound. The plates (Corning 384 well plates, black, round bottom, low binding) were incubated for 3 h RT prior to fluorescence anisotropy (FA) measurements with the Tecan Infinite 500 plate reader (FITC dye: excitation 485 nm, emission 535 nm). Dilution series were prepared in FA buffer (10 mM HEPES pH 7.4, 150 mM NaCl, 0.1% Tween20). All measurements were performed once.

p65_45/14-3-3γ [2] = target: T1, p65_45/14-3-3γ; assay: Fluorescence anisotropy compound titration, p65_45 peptide with 50 μM 14-3-3γ (CC50)
Description: Biochemical assessment of fragments 1-7 used a fluorescence anisotropy (FA) assay. […] The subsequent outputs are herein term termed ‘half maximal complex concentration (CC50)’. […] We sought to develop a structure-activity relationship (SAR) based upon these four chemotypes with the specific goal to develop high affinity molecular glues which orthosterically engage with p65 and stabilize the 14-3-3/p65 complex.
During compound titrations, the 14-3-3γ concentration was constant 50 μM and the compound was titrated in a 1:1 dilution series. In protein titrations, 14-3-3γ was titrated in a 1:1 dilution series in the presence of 1 mM compound. […] All measurements were performed once.

Pin1_72/14-3-3γ = target: T2, Pin1_72/14-3-3γ (Homo sapiens, UniProt P61981+Q13526); assay: Fluorescence anisotropy protein titration, Pin1_72/14-3-3γ at constant compound; assay type: binding; details: based on internal DMSO control and 100 μM fragment
T2 construct: the full length 14-3-3γ was dialysis against 25 mM HEPES pH 7.5; made in house; host or cells: E. coli BL21(DE3), pPROEX HTb
T2 sequence (P61981 whole entry, other chains not shown, the tested form may be a part): as above
From the text: Inspired by the binding poses of 3 and 9 we combined their structural features to improve stabilization. […] In case of complex stabilization, a left shift of apparent KD values is expected, here described as stabilization factors (SF).
Fluorescence Anisotropy (FA) Assays.

[3] = Table 9, fold-change of apparent KD vs DMSO control
[4] = fold-change of apparent KD in comparison to a DMSO control, 1 mM fragment

Chain of ER (P31947 whole entry, other chains not shown, the tested form may be a part): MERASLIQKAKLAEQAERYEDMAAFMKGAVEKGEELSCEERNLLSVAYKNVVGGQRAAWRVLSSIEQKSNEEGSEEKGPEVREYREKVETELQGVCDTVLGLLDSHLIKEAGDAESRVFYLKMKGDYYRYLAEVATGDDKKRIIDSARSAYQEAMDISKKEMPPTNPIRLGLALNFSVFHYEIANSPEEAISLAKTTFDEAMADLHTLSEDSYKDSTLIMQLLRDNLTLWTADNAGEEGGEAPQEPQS

Compound: O=C(CCl)CCC1CCN(C(=O)C2(Nc3ccc(Cl)cc3)CCOCC2)CC1
Kd (ER): 0.145 µM

Compound: O=C(CCl)NCCCC1CCN(C(=O)C2(Nc3ccc(Cl)cc3)CCOCC2)CC1
Kd (ER): < 0.1 µM

Compound: C=CS(=O)(=O)NCC1CCN(C(=O)C2(Nc3ccc(Cl)cc3)CCOCC2)CC1
Kd (ER): 0.125 µM

Compound: O=Cc1ccc(S(=O)(=O)N2CCC(CNC(=O)CCl)CC2)cc1
Kd (ER): 150 µM

Compound: O=C(CCl)NCC1CCN(S(=O)(=O)c2ccc(Cl)cc2)CC1
Kd (ER): 7.15 µM

Compound: COC1CCCN(c2cc(C=O)ccc2[N+](=O)[O-])C1 (centres unmarked) [13e, 3-(3-methoxypiperidin-1-yl)-4-nitrobenzaldehyde]
activity in FA compound titration (p65_45/14-3-3γ [2]): did not elicit significant ternary complex formation

Compound: O=Cc1ccc([N+](=O)[O-])c(N2CCC(O)CC2)c1 [13f, 3-(4-hydroxypiperidin-1-yl)-4-nitrobenzaldehyde]
activity in FA compound titration (p65_45/14-3-3γ [2]): did not elicit significant ternary complex formation

Compound: O=Cc1ccc([N+](=O)[O-])c(N2CCCC(O)C2)c1 (centres unmarked) [13l, 3-(3-hydroxypiperidin-1-yl)-4-nitrobenzaldehyde]
activity in FA compound titration (p65_45/14-3-3γ [2]): did not elicit significant ternary complex formation

Compound: O=Cc1ccc([N+](=O)[O-])c(N2CCOCC2)c1 [13q, 3-(morpholin-4-yl)-4-nitrobenzaldehyde]
activity in FA compound titration (p65_45/14-3-3γ [2]): did not elicit significant ternary complex formation

Compound: O=Cc1ccc(-n2ccnc2Br)nc1 [16d, 6-(2-bromo-1H-imidazol-1-yl)pyridine-3-carbaldehyde]
activity in FA compound titration (p65_45/14-3-3γ [2]): induced an increase in anisotropy

Compound: O=Cc1ccc(-n2cncc2[C@H]2CCCN2CC2CC2)nc1 [16e, 6-{5-[(2R)-1-(cyclopropylmethyl)pyrrolidin-2-yl]-1H-imidazol-1-yl}pyridine-3-carbaldehyde]
activity in FA compound titration (p65_45/14-3-3γ [2]): induced an increase in anisotropy

Compound: COc1ccc2c(c1)OCCN2S(=O)(=O)c1ccc(C=O)cc1 [24i, 4-[(7-methoxy-3,4-dihydro-2H-1,4-benzoxazin-4-yl)sulfonyl]benzaldehyde]
EC50 (p65_45/14-3-3γ [2]): 110 µM

Compound: O=Cc1ccc(-n2ccnc2-c2ccccc2)cc1C(F)(F)F [compound 14, 4-(2-phenyl-1H-imidazol-1-yl)-2-(trifluoromethyl)benzaldehyde]
SF (fold stabilization) (Pin1_72/14-3-3γ): 1.2

Compound: O=Cc1ccc(-n2ccnc2-c2ccccc2)cc1O [compound 19, 2-hydroxy-4-(2-phenyl-1H-imidazol-1-yl)benzaldehyde]
SF (fold stabilization) (Pin1_72/14-3-3γ): 4.9

Continued, in another order:

SF (p65_45/14-3-3γ [1]; [3]): 36
Compound: CC1CCc2ccccc2N1S(=O)(=O)c1ccc(C=O)cc1 (racemic) [24b, rac-4-[(2-methyl-1,2,3,4-tetrahydroquinolin-1-yl)sulfonyl]benzaldehyde]
EC50 (p65_45/14-3-3γ [2]): 310 µM

SF (p65_45/14-3-3γ [1]; [4]): 1.5
Compound: Cn1ccc(NS(=O)(=O)c2ccc(C=O)cc2)n1 [23b, 4-formyl-N-(1-methyl-1H-pyrazol-3-yl)benzene-1-sulfonamide]

SF (p65_45/14-3-3γ [1]; [4]): 1.8
Compound: CN(C)S(=O)(=O)c1ccc(C=O)cc1 [23c, 4-formyl-N,N-dimethylbenzene-1-sulfonamide]

SF (p65_45/14-3-3γ [1]; [4]): 5.1
Compound: COC1CN(S(=O)(=O)c2ccc(C=O)cc2)C1 [23d, 4-[(3-methoxyazetidin-1-yl)sulfonyl]benzaldehyde]

SF (p65_45/14-3-3γ [1]; [4]): 20.6
Compound: C[C@H]1CCCN1S(=O)(=O)c1ccc(C=O)cc1 [23e, 4-{[(2S)-2-methylpyrrolidin-1-yl]sulfonyl}benzaldehyde]

SF (p65_45/14-3-3γ [1]; [4]): 4.0
Compound: CN1CCCN(S(=O)(=O)c2ccc(C=O)cc2)CC1 [23g, 4-[(4-methyl-1,4-diazepan-1-yl)sulfonyl]benzaldehyde]

SF (p65_45/14-3-3γ [1]; [4]): 3.3
Compound: CN1CCN(S(=O)(=O)c2ccc(C=O)cc2)CC1 [23h, 4-[(4-methylpiperazin-1-yl)sulfonyl]benzaldehyde]

SF (p65_45/14-3-3γ [1]; [4]): 3.3
Compound: CCN1CCN(S(=O)(=O)c2ccc(C=O)cc2)CC1 [23i, 4-[(4-ethylpiperazin-1-yl)sulfonyl]benzaldehyde]

SF (p65_45/14-3-3γ [1]; [4]): 5.5
Compound: CC(C)N1CCN(S(=O)(=O)c2ccc(C=O)cc2)CC1 [23j, 4-{[4-(propan-2-yl)piperazin-1-yl]sulfonyl}benzaldehyde]

SF (p65_45/14-3-3γ [1]; [4]): 4.5
Compound: COCCN1CCN(S(=O)(=O)c2ccc(C=O)cc2)CC1 [23l, 4-{[4-(2-methoxyethyl)piperazin-1-yl]sulfonyl}benzaldehyde]

SF (p65_45/14-3-3γ [1]; [4]): 3.5
Compound: O=Cc1ccc(S(=O)(=O)N2CCC(N3CCCC3)CC2)cc1 [23m, 4-{[4-(pyrrolidin-1-yl)piperidin-1-yl]sulfonyl}benzaldehyde]

SF (p65_45/14-3-3γ [1]; [4]): 3.5
Compound: CN(C)C1CCN(S(=O)(=O)c2ccc(C=O)cc2)CC1 [23n, 4-{[4-(dimethylamino)piperidin-1-yl]sulfonyl}benzaldehyde]

SF (p65_45/14-3-3γ [1]; [4]): 4.5
Compound: CC(=O)N1CCN(S(=O)(=O)c2ccc(C=O)cc2)CC1 [23o, 4-[(4-acetylpiperazin-1-yl)sulfonyl]benzaldehyde]

SF (p65_45/14-3-3γ [1]; [4]): 2.2
Compound: O=Cc1ccc(S(=O)(=O)N2CCNC(=O)C2)cc1 [23p, 4-[(3-oxopiperazin-1-yl)sulfonyl]benzaldehyde]

SF (p65_45/14-3-3γ [1]; [4]): 10.3
Compound: O=Cc1ccc(S(=O)(=O)N2CCCC(O)C2)cc1 (centres unmarked) [23q, 4-[(3-hydroxypiperidin-1-yl)sulfonyl]benzaldehyde]

SF (p65_45/14-3-3γ [1]; [4]): 7.5
Compound: COC1CCCN(S(=O)(=O)c2ccc(C=O)cc2)C1 (centres unmarked) [23r, 4-[(3-methoxypiperidin-1-yl)sulfonyl]benzaldehyde]

SF (p65_45/14-3-3γ [1]; [4]): 7.2
Compound: O=Cc1ccc(S(=O)(=O)N2CCC(O)CC2)cc1 [23s, 4-[(4-hydroxypiperidin-1-yl)sulfonyl]benzaldehyde]

SF (p65_45/14-3-3γ [1]; [4]): 16.5
Compound: COC1CCN(S(=O)(=O)c2ccc(C=O)cc2)CC1 [23t, 4-[(4-methoxypiperidin-1-yl)sulfonyl]benzaldehyde]

SF (p65_45/14-3-3γ [1]; [4]): 6.3
Compound: O=Cc1ccc(S(=O)(=O)N2CCOCC2)cc1 [23u, 4-(morpholine-4-sulfonyl)benzaldehyde]

SF (p65_45/14-3-3γ [1]; [4]): 12.7
Compound: CN(C1CCCCC1)S(=O)(=O)c1ccc(C=O)cc1 [23w, N-cyclohexyl-4-formyl-N-methylbenzene-1-sulfonamide]

SF (p65_45/14-3-3γ [1]; [4]): 5.9
Compound: CN(C1CCOCC1)S(=O)(=O)c1ccc(C=O)cc1 [23x, 4-formyl-N-methyl-N-(oxan-4-yl)benzene-1-sulfonamide]

SF (p65_45/14-3-3γ [1]; [3]): 0.7^a | SF (p65_45/14-3-3γ [1]; [4]): 0.7
Compound: O=Cc1ccc(S(=O)(=O)N2CCc3ccccc3C2)cc1 [23y, 4-(1,2,3,4-tetrahydroisoquinoline-2-sulfonyl)benzaldehyde]
EC50 (p65_45/14-3-3γ [2]): 180 µM

SF (p65_45/14-3-3γ [1]; [3]): 30
Compound: O=Cc1ccc(S(=O)(=O)N2CCc3ccccc32)cc1 [24a, 4-(2,3-dihydro-1H-indole-1-sulfonyl)benzaldehyde]
EC50 (p65_45/14-3-3γ [2]): 220 µM

SF (p65_45/14-3-3γ [1]; [3]): 56
Compound: O=Cc1ccc(S(=O)(=O)N2CCCc3cc(F)ccc32)cc1 [24c, 4-[(6-fluoro-1,2,3,4-tetrahydroquinolin-1-yl)sulfonyl]benzaldehyde]
EC50 (p65_45/14-3-3γ [2]): 140 µM

SF (p65_45/14-3-3γ [1]; [3]): 36
Compound: O=Cc1ccc(S(=O)(=O)N2CCCc3cc(Cl)ccc32)cc1 [24d, 4-[(6-chloro-1,2,3,4-tetrahydroquinolin-1-yl)sulfonyl]benzaldehyde]
EC50 (p65_45/14-3-3γ [2]): 160 µM

SF (p65_45/14-3-3γ [1]; [3]): 34
Compound: COc1ccc2c(c1)CCCN2S(=O)(=O)c1ccc(C=O)cc1 [24e, 4-[(6-methoxy-1,2,3,4-tetrahydroquinolin-1-yl)sulfonyl]benzaldehyde]
EC50 (p65_45/14-3-3γ [2]): 120 µM

SF (p65_45/14-3-3γ [1]; [3]): 23
Compound: O=Cc1ccc(S(=O)(=O)N2CCOc3ccccc32)cc1 [24f, 4-(3,4-dihydro-2H-1,4-benzoxazine-4-sulfonyl)benzaldehyde]
EC50 (p65_45/14-3-3γ [2]): 220 µM

SF (p65_45/14-3-3γ [1]; [3]): 22
Compound: O=Cc1ccc(S(=O)(=O)N2CCOc3ccc(F)cc32)cc1 [24g, 4-[(6-fluoro-3,4-dihydro-2H-1,4-benzoxazin-4-yl)sulfonyl]benzaldehyde]
EC50 (p65_45/14-3-3γ [2]): 310 µM

SF (p65_45/14-3-3γ [1]; [3]): 28
Compound: O=Cc1ccc(S(=O)(=O)N2CCOc3cc(Cl)ccc32)cc1 [24h, 4-[(7-chloro-3,4-dihydro-2H-1,4-benzoxazin-4-yl)sulfonyl]benzaldehyde]
EC50 (p65_45/14-3-3γ [2]): 250 µM
